The results in this text go back to US20250003952A1, “SENOLYTIC DRUG SCREENING METHOD AND SENOLYTIC DRUG” (KYOTO UNIVERSITY, priority 2021, published 2025).

One assay has as its system p53. The experiment in a line: p53 activation (Western blot of p53 and p21) in young IMR90 cells. In kind it is cell-based, human. To be noted: 20 μM for 48 hours. The text has this: After the treatment, proteins were extracted from the cells to carry out Western blotted.
The next assay relates to senescent cells. The experiment in a line: Transcriptome / microarray / mRNA analysis of nutlin 3b-treated senescent cells. In kind it is cell-based, human. As for the experimental part:
(§1) The latter information consists of 12,655 ChIP datasets from 903 antigens (transcription factors and epigenetic regulators).
A microarray dataset on nutlin 3b-treated senescent cells was analyzed for 202 genes (GO:0042981) classified as regulation of the apoptotic process.
In the Fox family, FoxO protein is deeply involved in the senescence process.

The next assay relates to IMR90 cells. The experiment in a line: Senolysis / cell death of young and Ras-induced senescent IMR90 cells. In kind it is cell-based, human.
Source text: Ras gene with oncogenic mutation was introduced into young cells (within 1 month of continuous culture) of IMR90 cells by retroviral infection to acquire senescent cells. […] The control received only DMSO treatment. Representative images of cells observed under a microscope are shown (FIG. 11).
An oncogenic mutated Ras gene was introduced into young cells (within 1 month of continuous culture) of IMR90 cells by retroviral infection to acquire stress-induced senescent cells. The young cells and the senescent cells were both treated with different concentrations of the RSK kinase inhibitor BI-D1870 for 96 hours to evaluate cell death.
An oncogenic mutated Ras gene was introduced into young cells (within 1 month of continuous culture) of IMR90 cells by retroviral infection to acquire stress-induced senescent cells. The young cells and the senescent cells of IMR90 were both transfected with an RSK1 siRNA (two types of siRNA #1 (SEQ ID NO: 7) or #2 (SEQ ID NO: 8) having different target sequences) or a control to knock down RSK1. Representative images of cells observed under a microscope are shown (upper diagram in FIG. 20).
An oncogenic Ras was introduced into young cells (within 1 month of continuous culture) of IMR90 cells to induce senescent cells (OIS). The young cells and the senescent cells of IMR90 were transfected with two HIF-2α-specific siRNAs (SEQ ID NO: 9 and SEQ ID NO: 10) having different target sequences to knock down HIF-2α.
An oncogenic Ras was introduced into young cells (within 1 month of continuous culture) of IMR90 cells to induce senescent cells (OIS). The young cells and the senescent cells of IMR90 were transfected with a BIM-specific siRNA to knock down BIM.
An oncogenic Ras was introduced into young cells (within 1 month of continuous culture) of IMR90 cells to induce senescent cells (OIS). In the young cells and the senescent cells of IMR90, HIF-2α alone or both HIF-2α and BIM were knocked down by using their respective specific siRNAs (SEQ ID NO: 9, SEQ ID NO: 10), and cell death was confirmed (FIG. 28).
as §1

The target of another assay is T1, PGAM-Chk1 binding (Homo sapiens, UniProt O14757+P18669).
T1 construct: endogenous in cells; host or cells: IMR90 human primary fibroblasts made senescent by retroviral oncogenic Ras
T1 sequence (P18669 2-254 limits assumed): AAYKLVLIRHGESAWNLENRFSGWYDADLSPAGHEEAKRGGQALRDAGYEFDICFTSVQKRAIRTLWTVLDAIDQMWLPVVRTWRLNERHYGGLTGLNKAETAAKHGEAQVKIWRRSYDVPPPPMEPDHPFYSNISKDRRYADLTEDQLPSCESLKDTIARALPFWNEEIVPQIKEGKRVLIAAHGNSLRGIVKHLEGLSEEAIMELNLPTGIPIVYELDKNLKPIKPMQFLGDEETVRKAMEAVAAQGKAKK
T1 sequence (O14757 1-476): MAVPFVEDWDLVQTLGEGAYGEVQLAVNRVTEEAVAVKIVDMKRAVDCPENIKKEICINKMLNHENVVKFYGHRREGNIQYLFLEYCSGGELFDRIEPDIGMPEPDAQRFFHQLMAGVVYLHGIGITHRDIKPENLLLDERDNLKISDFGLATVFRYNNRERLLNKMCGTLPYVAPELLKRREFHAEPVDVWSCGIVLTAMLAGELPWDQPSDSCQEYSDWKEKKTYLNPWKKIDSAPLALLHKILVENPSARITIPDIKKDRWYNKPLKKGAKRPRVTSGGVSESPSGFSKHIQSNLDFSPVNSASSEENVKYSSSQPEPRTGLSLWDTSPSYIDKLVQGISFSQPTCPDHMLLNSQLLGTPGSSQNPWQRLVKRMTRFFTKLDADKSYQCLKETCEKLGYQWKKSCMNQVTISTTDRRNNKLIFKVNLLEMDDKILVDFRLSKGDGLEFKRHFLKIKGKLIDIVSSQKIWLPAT
As to the kind of experiment: PGAM-Chk1 binding by anti-Chk1 immunoprecipitation and anti-PGAM Western blotting in Ras-induced senescent IMR90 cells. Type of assay: cell-based. To be noted: 20 μM or 40 μM for 48 hours, then MG132 6 hours. The protocol: Human primary fibroblasts, IMR90 cells, were obtained from the JCRB Cell Bank. An oncogenic Ras mutation was retrovirally introduced into young cells (within 1 month of continuous culture) of the IMR90 cells to induce cellular senescence. […] After that, these cells were treated with MG132 for 6 hours, and cell lysates were prepared. The obtained cell lysates were immunoprecipitated with an anti-Chk1 antibody. The resulting immunoprecipitate was used for Western blotting with an anti-PGAM antibody to evaluate PGAM-Chk1 binding.
Next, in the same manner as above, IMR90 cells were used to prepare stress-induced senescent cells by introducing an oncogenic mutated Ras gene. The senescent cells were transfected with an RSK1 siRNA (SEQ ID NO: 7) or a control to knock down RSK1. The resulting cells were collected, and proteins were extracted. The resulting protein extract was immunoprecipitated with an anti-Chk1 antibody. The resulting immunoprecipitate was used for Western blotting with an anti-PGAM antibody to evaluate PGAM-Chk1 binding.
Background: A western blot detects proteins with antibodies after separation by electrophoresis.

As for `COc1ccc(C2=N[C@H](c3ccc(Cl)cc3)[C@H](c3ccc(Cl)cc3)N2C(=O)N2CCNC(=O)C2)c(OC(C)C)c1` [nutlin 3b], in the assay with p53, the “protein level of p21” value was “almost unchanged” and the “protein level of p53” value was “almost unchanged”. In addition, in the assay with senescent cells (nutlin 3b treatment), the “expression of FOXM1, FOXF1, FOXC1, FOXL1, FOXL2, FOXD1, FOXB2, FOXI2, and FOXN1” value is “downregulated”; the “expression of FOXO1, FOXP1, FOXH1, FOXF2, FOXO4, FOXO3, FOXJ3, FOXQ1, FOXK2, FOXN3, FOXO6, FOXK1, FOXP4, FOXN2, and FOXJ2” value is recorded as “upregulated”; the “expression of FOXO1 and FOXP1” value was “remarkably upregulated”. Further, the Survivin protein entry in the assay on senescent cells (nutlin 3b-treated senescent cells) is “downregulated”. The “downregulation of Survivin/BIRC5” value in the assay with senescent cells (nutlin 3b-treated senescent cells, microarray) was “about 30 fold”. Also, in the assay with senescent cells (senescent cells), the “FoxM1 mRNA among FOX transcription family members” value is “most dramatically downregulated” and the “mRNAs for FoxM1 transcription targets (CCNB1, B2, D1, PLK1, ASPM, CEP55)” value is “significantly affected”. Moreover, the “senolysis by nutlin 3b treatment in BIM knockdown cells” value in the assay with IMR90 cells (IMR90 cells transfected with BIM-specific siRNA, nutlin 3b 96 hours) is “rescued by BIM knockdown”. Moreover, the “cell death observed under a microscope” value in the assay on IMR90 cells (young and Ras-induced senescent IMR90 cells, 40 μM for 72 hours) is listed as “young cells are normal, but senescent cells selectively die”. In addition, the “senolytic effect (cell death)” value in the assay on IMR90 cells (young and senescent IMR90 cells, 96 hours, 20 or 40 μM) is “remarkable senolytic effect”. Further, the “PGAM-Chk1 binding (interaction)” value at PGAM-Chk1 binding is given as “inhibit PGAM-Chk1 interaction to the same extent”.
